Reference: patent publication US9409905B2, “Antibacterial compounds and methods for use” (PTC THERAPEUTICS, INC., priority 2011, dated 2016)
Values after ≈ are worked out from the molar mass of the structure shown.

Key:
[1] = tested on: E. coli LZ3111; test: Antibacterial activity, MIC, quinolone resistant strain (Table 2); assay type: cell-based; conditions: Escherichia coli, LZ3111, read-out: MIC LZ3111
Summary of the method: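 Growth inhibition assessed by serial drug dilution in broth; endpoint was absence of macroscopically visible growth, reported as MIC, μg/mL.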

[2] = tested on: Neisseria meningitidis (N. meningitidis) 13090; test: Antibacterial activity, MIC (Table 8); assay type: cell-based
Summary of the method: (§1)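 Values are minimum inhibitory concentrations in μg/mL, determined by microbroth dilution as the lowest concentration with no macroscopically visible growth.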

[3] = tested on: Escherichia coli (E. coli) BAS849; test: Antibacterial activity, microbroth dilution MIC (Table 1); assay type: cell-based; conditions: microbroth dilution, super sensitive Gram-negative E. coli BAS849, read-out: MIC, BAS849
Summary of the method: (§2)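 Using broth microdilution, MIC endpoints (μg/mL) mark where visible growth no longer appears; the panel spans sensitive and control Gram-negative strains plus a Gram-positive strain.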

[4] = tested on: Staphylococcus aureus (S. aureus) 29213; test: as above; assay type: cell-based; conditions: microbroth dilution, Gram-positive S. aureus 29213, read-out: MIC, 29213
Summary of the method: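 Lowest concentration stopping macroscopically visible growth under test conditions, by broth microdilution, defines the MIC (μg/mL).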

[5] = tested on: Moraxella catarrhalis (M. catarrhalis) 25238; test: Antibacterial activity, MIC (Table 7); assay type: cell-based
From the text: The antibacterial activity from a microbroth dilution method may be presented as the minimum inhibitory concentration (MIC in μg/mL). The MIC value is the lowest concentration of drug which prevents macroscopically visible growth under test conditions.
Antibacterial activity of test compounds against the Gram-negative bacteria Haemophilus influenzae (H. influenzae) 49247 is shown in Table 6, Moraxella catarrhalis (M. catarrhalis) 25238 is shown in Table 7 and Neisseria meningitidis (N. meningitidis) 13090 is shown in Table 8.

[6] = tested on: Acinetobacter baumannii (A. baumannii) BAA747; test: Antibacterial activity, MIC (Table 4); assay type: cell-based; conditions: A. baumannii BAA747, read-out: MIC, BAA747
Summary of the method: (§3)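 MIC in μg/mL by microbroth dilution, scored as the lowest level that suppresses visible growth.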

[7] = tested on: Klebsiella pneumoniae (K. pneumoniae) 35657; test: Antibacterial activity, MIC (Table 4); assay type: cell-based; conditions: K. pneumoniae 35657, read-out: MIC, 35657
Summary of the method: as §3

[8] = tested on: E. coli ELZ4251; test: Antibacterial activity, MIC, multi-drug resistant clinical isolate (Table 3); assay type: cell-based; conditions: Escherichia coli
Summary of the method: (§4)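 Values derive from a microbroth dilution method, taking as MIC (μg/mL) the lowest tested concentration without macroscopically visible growth.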

[9] = tested on: E. coli ELZ4000; test: as above; assay type: cell-based; conditions: Escherichia coli, ELZ4000, read-out: MIC ELZ4000
Summary of the method: as §4

[10] = tested on: E. coli 25922; test: Antibacterial activity, microbroth dilution MIC (Table 1); assay type: cell-based, Escherichia coli; conditions: Escherichia coli; microbroth dilution; control Gram-negative E. coli 25922 strain; read-out: MIC, 25922
Summary of the method: as §2

[11] = tested on: Pseudomonas aeruginosa (P. aeruginosa) 27853; test: Antibacterial activity, MIC (Table 5); assay type: cell-based; conditions: P. aeruginosa 27853, read-out: MIC, 27853
Summary of the method: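 Using a microbroth dilution format, the minimum inhibitory concentration was recorded as the lowest tested concentration that stopped visible bacterial growth, expressed in μg/mL.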

[12] = tested on: A. baumannii MXX2240; test: Antibacterial activity, MIC, resistant strain (Table 4); assay type: cell-based; conditions: Acinetobacter baumannii, MXX2240; resistant A. baumannii MMX2240, multi-drug resistant clinical isolate; read-out: MIC, MMX2240
Summary of the method: as §3

[13] = tested on: K. pneumoniae MXX1232; test: as above; assay type: cell-based; conditions: Klebsiella pneumoniae, MXX1232; resistant K. pneumoniae MMX1232, multi-drug resistant clinical isolate; read-out: MIC, MMX1232
Summary of the method: as §3

[14] = tested on: Haemophilus influenzae (H. influenzae) 49247; test: Antibacterial activity, MIC (Table 6); assay type: cell-based
Summary of the method: as §1

| Structure (SMILES) | MIC [1] | MIC [2] | MIC [3] | MIC [4] | MIC [5] | MIC [6] | MIC [7] | MIC [8] | MIC [9] | MIC [10] | MIC [11] | MIC [12] | MIC [13] | MIC [14] |
| --- | --- | --- | --- | --- | --- | --- | --- | --- | --- | --- | --- | --- | --- | --- |
| CCc1c(-c2ccc3c(c2)cc(CN2CCC(NC)C2)n3C)[nH]c(=O)c(C(=O)O)c1O (stereo not drawn) [Cpd 181, 5-ethyl-4-hydroxy-6-(1-methyl-2-((3-(methylamino)pyrrolidin-1-yl)methyl)-1H-indol-5-yl)-2-oxo-1,2-dihydropyridine-3-carboxylic acid] | 1 to 3.5 µg/mL (≈ 2.36 to 8.24 µM) | 1 to 3.5 µg/mL (≈ 2.36 to 8.24 µM) | < 1 µg/mL | 12.5 to 150 µg/mL (≈ 29.4 to 353 µM) | 1 to 3.5 µg/mL (≈ 2.36 to 8.24 µM) | 3.5 to 12.5 µg/mL (≈ 8.24 to 29.4 µM) | 1 to 3.5 µg/mL (≈ 2.36 to 8.24 µM) | 12.5 to 150 µg/mL (≈ 29.4 to 353 µM) | 12.5 to 150 µg/mL (≈ 29.4 to 353 µM) | 1 to 3.5 µg/mL (≈ 2.36 to 8.24 µM) | 12.5 to 150 µg/mL (≈ 29.4 to 353 µM) | 12.5 to 150 µg/mL (≈ 29.4 to 353 µM) | 12.5 to 150 µg/mL (≈ 29.4 to 353 µM) | 1 to 3.5 µg/mL (≈ 2.36 to 8.24 µM) |
| CCc1c(-c2ccc3c(c2)cc(CN2CC4CCCNC4C2)n3C)[nH]c(=O)c(C(=O)O)c1O (stereo not drawn) [Cpd 184, 5-ethyl-4-hydroxy-6-(1-methyl-2-((tetrahydro-1H-pyrrolo[3,4-b]pyridin-6(2H,7H,7aH)-yl)methyl)-1H-indol-5-yl)-2-oxo-1,2-dihydropyridine-3-carboxylic acid] | 1 to 3.5 µg/mL (≈ 2.22 to 7.77 µM) | < 1 µg/mL | < 1 µg/mL | 12.5 to 150 µg/mL (≈ 27.7 to 333 µM) | 1 to 3.5 µg/mL (≈ 2.22 to 7.77 µM) | 3.5 to 12.5 µg/mL (≈ 7.77 to 27.7 µM) | 1 to 3.5 µg/mL (≈ 2.22 to 7.77 µM) | 3.5 to 12.5 µg/mL (≈ 7.77 to 27.7 µM) | 12.5 to 150 µg/mL (≈ 27.7 to 333 µM) | 1 to 3.5 µg/mL (≈ 2.22 to 7.77 µM) | 12.5 to 150 µg/mL (≈ 27.7 to 333 µM) | 12.5 to 150 µg/mL (≈ 27.7 to 333 µM) | 12.5 to 150 µg/mL (≈ 27.7 to 333 µM) | 1 to 3.5 µg/mL (≈ 2.22 to 7.77 µM) |
| CCc1c(-c2ccc3c(c2)cc(CN2CCC(C(C)(C)N)C2)n3C)[nH]c(=O)c(C(=O)O)c1O (stereo not drawn) [Cpd 185, 6-(2-((3-(2-aminopropan-2-yl)pyrrolidin-1-yl)methyl)-1-methyl-1H-indol-5-yl)-5-ethyl-4-hydroxy-2-oxo-1,2-dihydropyridine-3-carboxylic acid] | 1 to 3.5 µg/mL (≈ 2.21 to 7.73 µM) | < 1 µg/mL | < 1 µg/mL | 12.5 to 150 µg/mL (≈ 27.6 to 331 µM) | 1 to 3.5 µg/mL (≈ 2.21 to 7.73 µM) | 12.5 to 150 µg/mL (≈ 27.6 to 331 µM) | 1 to 3.5 µg/mL (≈ 2.21 to 7.73 µM) | 12.5 to 150 µg/mL (≈ 27.6 to 331 µM) | 12.5 to 150 µg/mL (≈ 27.6 to 331 µM) | 1 to 3.5 µg/mL (≈ 2.21 to 7.73 µM) | 3.5 to 12.5 µg/mL (≈ 7.73 to 27.6 µM) | 12.5 to 150 µg/mL (≈ 27.6 to 331 µM) | 12.5 to 150 µg/mL (≈ 27.6 to 331 µM) | 1 to 3.5 µg/mL (≈ 2.21 to 7.73 µM) |
| CCc1c(-c2ccc3c(c2)cc(CN2CCC2)n3C)[nH]c(=O)c(C(=O)O)c1O [Cpd 186, 6-(2-(azetidin-1-ylmethyl)-1-methyl-1H-indol-5-yl)-5-ethyl-4-hydroxy-2-oxo-1,2-dihydropyridine-3-carboxylic acid] | 1 to 3.5 µg/mL (≈ 2.62 to 9.18 µM) | 3.5 to 12.5 µg/mL (≈ 9.18 to 32.8 µM) | < 1 µg/mL | 3.5 to 12.5 µg/mL (≈ 9.18 to 32.8 µM) | < 1 µg/mL | < 1 µg/mL | < 1 µg/mL | 3.5 to 12.5 µg/mL (≈ 9.18 to 32.8 µM) | 3.5 to 12.5 µg/mL (≈ 9.18 to 32.8 µM) | < 1 µg/mL | 3.5 to 12.5 µg/mL (≈ 9.18 to 32.8 µM) | 1 to 3.5 µg/mL (≈ 2.62 to 9.18 µM) | 12.5 to 150 µg/mL (≈ 32.8 to 393 µM) | < 1 µg/mL |
| CCc1c(-c2ccc3c(c2)cc(CN2CC(O)C2)n3C)[nH]c(=O)c(C(=O)O)c1O [Cpd 187, 5-ethyl-4-hydroxy-6-(2-((3-hydroxyazetidin-1-yl)methyl)-1-methyl-1H-indol-5-yl)-2-oxo-1,2-dihydropyridine-3-carboxylic acid] | 1 to 3.5 µg/mL (≈ 2.52 to 8.81 µM) | < 1 µg/mL | < 1 µg/mL | 12.5 to 150 µg/mL (≈ 31.5 to 377 µM) | < 1 µg/mL | 1 to 3.5 µg/mL (≈ 2.52 to 8.81 µM) | 1 to 3.5 µg/mL (≈ 2.52 to 8.81 µM) | 3.5 to 12.5 µg/mL (≈ 8.81 to 31.5 µM) | 12.5 to 150 µg/mL (≈ 31.5 to 377 µM) | < 1 µg/mL | 3.5 to 12.5 µg/mL (≈ 8.81 to 31.5 µM) | 12.5 to 150 µg/mL (≈ 31.5 to 377 µM) | 12.5 to 150 µg/mL (≈ 31.5 to 377 µM) | < 1 µg/mL |
| CCc1c(-c2ccc3c(c2)cc(CN2CC(N)C2)n3C)[nH]c(=O)c(C(=O)O)c1O [Cpd 188, 6-(2-((3-aminoazetidin-1-yl)methyl)-1-methyl-1H-indol-5-yl)-5-ethyl-4-hydroxy-2-oxo-1,2-dihydropyridine-3-carboxylic acid] | 1 to 3.5 µg/mL (≈ 2.52 to 8.83 µM) | 3.5 to 12.5 µg/mL (≈ 8.83 to 31.5 µM) | < 1 µg/mL | 12.5 to 150 µg/mL (≈ 31.5 to 378 µM) | 3.5 to 12.5 µg/mL (≈ 8.83 to 31.5 µM) | 12.5 to 150 µg/mL (≈ 31.5 to 378 µM) | 12.5 to 150 µg/mL (≈ 31.5 to 378 µM) | 12.5 to 150 µg/mL (≈ 31.5 to 378 µM) | 12.5 to 150 µg/mL (≈ 31.5 to 378 µM) | < 1 µg/mL | 12.5 to 150 µg/mL (≈ 31.5 to 378 µM) | 12.5 to 150 µg/mL (≈ 31.5 to 378 µM) | 12.5 to 150 µg/mL (≈ 31.5 to 378 µM) | 3.5 to 12.5 µg/mL (≈ 8.83 to 31.5 µM) |
